{
  "source": "patent US9322034B2",
  "about": "“Compositions and methods for detecting and modulating cell death by a translation regulated gene expression system” (Wayne State University, priority 2007, dated 2016)",
  "format_in_all_cases": "cell-based, human",
  "key": {"HEK293 cells": {"test_system": "HEK293 cells", "assay": "Trypan blue staining of HEK293 cells treated with toxic agents", "settings": "5-6.7 micromolar, within 24 hr"}, "[1]": {"test_system": "HEK293 cells transduced with rBAC TRplp-EYFP / TRdm-EYFP", "assay": "TR-EYFP translation after rBAC transduction", "settings": "5 μM, 24 hr", "description": "This example is to show delivery of the TRplp-EYFP and TRdm-EYFP cassettes to HEK293 cells using rBAC transduction. HEK293 cells are plated on flame sterilized glass slides and grown until 60-70% confluent (1-2 days), washed with serum-free DMEM, and infected with rBAC for 1-2 hr. The medium is replaced with DMEM, 10% FBS and the cells incubated for 24 hours. Infected cells were treated with DMEM, 10% FBS supplemented with 5 μM calcium ionophore A23187 for 24 hr prior to direct microscopic examination."}, "[2]": {"test_system": "HEK293 cells transformed with the CMV-EYFP, TRplp-EYFP or TRdm-EYFP expression cassettes", "assay": "Cytotoxicity assay by fluorescent microscopy, EYFP fluorescent cell counts", "settings": "5 micromolar", "source_text": "Fluorescence of single cells, tissues or cell suspensions can be detected and quantitated by several means such as visual inspection under a microscope, automated or semiautomated fluorescence imaging, flow cytometry, fluorescence spectroscopy in a fluorometer or in a microplate reader, using an appropriate filter set. For this example, visual inspection under a microscope (Nikon TE2000-S) was used to validate TR translational regulation in stressed and dying HEK293 cells expressing the TRplp-EYFP, TRdm-EYFP, TRplp-fLUC and TRdm-fLUC mRNAs.\nIn this study, HEK293 cells transformed with the CMV-EYFP, TRplp-EYFP or TRdm-EYFP expression cassettes are directly visualized following translation of the spontaneously fluorescent EYFP protein. One day prior to toxin addition, 200,000 cells (HEK293, HEK293 CMV-EYFP, HEK293 TRplp-EYFP or HEK293 TRdm-EYFP) are plated into a six-well tray containing a flame sterilized glass slide. […] Slides were fixed for 10 min in 4% paraformaldehyde, washed extensively with 1×PBS and mounted for fluorescence microscopy.\nFluorescent cell counts are performed on the 6 hr and 10 hr timepoints using an EYFP-selective filter set (Nikon) and are shown in FIG. 7. In untreated cell cultures, the frequency of EYFP-positive cells range from 1.5-2.5%, which is consistent with the frequency of nonviable cells in these cultures, as determined by Trypan blue staining. […]"}, "[3]": {"test_system": "HEK293 TRplp-EYFP and TRplp-fLUC colonies", "assay": "Microplate reader screen at fixed time and toxin concentration", "settings": "12 hr", "description": "For this example, HEK293 cells expressing the TRplp-EYFP, TRdm-EYFP, TRplp fLUC and TRdm-fLUC expression cassettes are evaluated using a microplate reader. To quantitate the TR translational response, 24,000 cells are plated in a 96-well microtiter plates and allowed to grow for about 40 hr to achieve the proper cell density prior to incubation with a toxic agent. Each well is cultured with complete DMEM medium containing either no toxin or a defined concentration of toxin and incubated at 37 C for specific time periods. At that time, fluorescence or chemiluminescence on a FLUOstar Optima (BMG Labtech) microplate reader is used measure TR-ORF response.\nDirect detection of the spontaneously fluorescent EYFP protein fluorophore is achieved by excitation of samples in black optical bottom 96-well trays with a fluorescein filter (545 nm) or a YFP filter (YFPex) and emission measured at 590 nm or 544 nm using gains of 1000-2000. To reduce the background fluorescence associated with media components, the trays are centrifuged at 1200 rpm, RT for 3 min to collect any floating cells, and the media replaced with 200 microliters of 1×PBS prior to detection. For the fLUC protein, protein activity is quantified by luminescence produced during live cell or lysed cell luciferase assays. […] Luminescence was detected using lens filter at gains of 2000-3000. […]"}},
  "data": [
    {"smiles": "CNc1ccc2oc(C[C@H]3O[C@@]4(CC[C@H]3C)O[C@H]([C@H](C)C(=O)c3ccc[nH]3)[C@H](C)C[C@H]4C)nc2c1C(=O)O", "note": "[calcium ionophore A23187]", "values": [
      {"measurement": "cell death in HEK293 cells as determined by Trypan blue staining", "setting": "HEK293 cells", "result": "complete cell death"},
      {"measurement": "translation of EYFP in rBAC transduced cells compared to uninfected control cells", "setting": "[1]", "result": "exhibit selective translation of the fluorescent EYFP protein"},
      {"measurement": "change in the number of fluorescent cells", "setting": "[2]; HEK293 or HEK CMV-EYFP cells", "result": "no significant change"},
      {"measurement": "frequency of fluorescent cells, rise in % of untreated control cultures", "setting": "[2]; TRplp-EYFP expressing cells, 6 hr and 10 hr", "result": "1000-2300%"},
      {"measurement": "TR response in screening assay", "setting": "[3]; HEK293 TRplp-EYFP subclone #41, 6.7 micromolar", "result": "significant TR responses"},
      {"measurement": "TR response in screening assay", "setting": "[3]; HEK293 TRplp-fLUC subclone #3, 6.7 micromolar, live cell assay", "result": "significant TR responses"}
    ]}
  ]
}
